Assay results: ChEMBL document CHEMBL1121708, “Synthesis and study of the potential antiallergic activity of some pyrazole derivatives” (1981)

How the values were obtained:
[1] = test system: Rattus norvegicus; test: Compound was tested for inhibition of the rat passive cutaneous anaphylaxis (PCA) 1 hr after oral administration; >0<50; assay type: functional; set-up: concentration or dose not given beside the values
[2] = test system: Rattus norvegicus; test: Compound was tested for inhibition of the rat passive cutaneous anaphylaxis (PCA) 3h after oral administration; >0<50; assay type: functional; set-up: concentration or dose not given beside the values

SMILES	Inhibition [1]	Inhibition [2]
Nc1ccc2[nH]ncc2c1	>0%	54%
CC1Cc2c[nH]nc2-c2ccccc21 (stereo not drawn)	>0%	>0%
c1ccc2c(c1)CCCc1c[nH]nc1-2	>0%	>0%
COc1cccc2c1CCc1c[nH]nc1-2	15%	>0%
c1ccc2c(c1)SCc1cn[nH]c1-2	>0%	>0%
Oc1ccc2c(c1)-c1n[nH]cc1CC2	>0%	>0%
c1ccc2c(c1)CCc1c[nH]nc1-2	>0%	>0%
c1[nH]nc2c1CCC1c3n[nH]cc3CCC21 (stereo not drawn)	77%	55%
COc1ccc2c(c1)-c1n[nH]cc1CC2	32%	>0%
c1ccc2c(c1)OCc1cn[nH]c1-2	>0%	>0%
COc1ccc2c(c1)CCc1c[nH]nc1-2	>0%	>0%
CCc1cc2c(cc1CC)-c1n[nH]cc1CC2	>0%	>0%
Oc1ccc2c(c1)CCc1c[nH]nc1-2	>0%	>0%
Oc1cccc2c1CCc1c[nH]nc1-2	>0%	>0%
